The subject of series [1] is primary cultured guinea-pig urinary bladder (GPB) cells. As to the kind of experiment: Membrane hyperpolarization (MHP) assay, DiBAC(4)3 / FLIPR. It counts as cell-based. The conditions noted are these: Cavia porcellus; for EC50: concentration that elicits 50% of the maximal response for the test sample; for Emax: maximal steady-state hyperpolarization, normalized to response with 10 μM P1075 (100%). In outline:
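Primary smooth-muscle cells from male guinea-pig bladder, grown to confluence, loaded 30 min at 37° C with 5 μM DiBAC(4)3 in HEPES buffer pH 7.4. Fluorescence drop on FLIPR followed 25 min after compound; steady-state hyperpolarization normalized to 10 μM P1075 (100%), EC50 from four-parameter fit of five concentrations.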

Structures are written as SMILES. Where only a bound is given, the exact number is not on record here.

In turn, `Cc1ccc(C(=O)NC(NC(=S)Nc2cccc(C)c2)C(F)(F)F)cc1` (stereo not drawn) [Example 16, 4-methyl-N-{2,2,2-trifluoro-1-[(3-toluidinocarbothioyl)amino]ethyl}benzamide] displayed a melting point of 197 to 198 °C. In addition, in series [1], the EC50 was 0.37 µM and the Emax was determined as 65%.

As to `O=C(NC(NC(=S)Nc1cccnc1)C(F)(F)F)c1ccc(Cl)cc1` (stereo not drawn) [Example 19, 4-chloro-N-(2,2,2-trifluoro-1-{[(3-pyridinylamino)carbothioyl]amino}ethyl)benzamide], the melting point fell in the range of 147 to 149 °C. In series [1], this compound gave an EC50 of 0.06 µM and an Emax of 117%.

With `Cc1ccccc1C(=O)NC(NC(=S)Nc1cccnc1)C(C)(C)C` (stereo not drawn) [Example 26, N-(2,2-dimethyl-1-{[(3-pyridinylamino)carbothioyl]amino}propyl)-2-methylbenzamide], the melting point lay within 186 to 187 °C. In series [1], this compound returned an EC50 of 0.99 µM and an Emax of 80%.

Turning to `Cc1ccc(C(=O)NC(C)NC(=S)Nc2cccc([N+](=O)[O-])c2)cc1` (stereo not drawn) [Example 29, 4-methyl-N-(1-{[(3-nitroanilino)carbothioyl]amino}ethyl)benzamide], the melting point lay within 172 to 175 °C. In series [1], this compound returned an EC50 of 1 µM and an Emax of 28%.

`Cc1ccc(C(=O)NC(Cc2ccccc2)NC(=S)Nc2cccc([N+](=O)[O-])c2)cc1` (stereo not drawn) [Example 30, 4-methyl-N-(1-{[(3-nitroanilino)carbothioyl]amino}-2-phenylethyl)benzamide]: the melting point was 170 to 171 °C. In series [1], the EC50 was 3.2 µM and the Emax worked out at 22%.

Regarding `Cc1ccc(C(=O)NC(CF)NC(=S)Nc2cccc([N+](=O)[O-])c2)cc1` (stereo not drawn) [Example 32, N-(2-fluoro-1-{[(3-nitroanilino)carbothioyl]amino}ethyl)-4-methylbenzamide], the melting point fell in the range of 148 to 155 °C. Besides, in series [1], the EC50 is 1 µM and the Emax came to 15%.

The compound `Cc1ccc(C(=O)NC(NC(=S)Nc2cccnc2)C(C)C)cc1` (stereo not drawn) [Example 35, 4-methyl-N-(2-methyl-1-{[(3-pyridinylamino)carbothioyl]amino}propyl)benzamide] returned a melting point of 184 to 186 °C. In series [1], the response was half-maximal at 13.1 µM (EC50) and the Emax turned out to be 40%.

The compound `CC[C@H](C)[C@H](NC(=O)c1ccc(C)cc1)NC(=S)Nc1cccnc1` [Example 36, 4-methyl-N-((1R,2S)-2-methyl-1-{[(3-pyridinylamino)carbothioyl]amino}butyl)benzamide] yielded a melting point of 102 to 104 °C. Further, in series [1], a half-maximal effect (EC50) was put at 25.5 µM and the Emax worked out at 50%.

Regarding `Cc1ccc(C(=O)NC(N2CCN(c3cccc(F)c3)C2=S)C(Cl)(Cl)Cl)cc1` (stereo not drawn) [Example 37, 4-methyl-N-{2,2,2-trichloro-1-[3-(3-fluorophenyl)-2-thioxo-1-imidazolidinyl]ethyl}benzamide], the melting point was in the range of 184 to 186 °C. In series [1], this compound displayed an EC50 of 0.78 µM and an Emax of 85%.

Turning to `Cc1ccccc1C(=O)NC(NC(=O)Nc1cccnc1)C(Cl)(Cl)Cl` (stereo not drawn) [Example 39, 2-methyl-N-(2,2,2-trichloro-1-{[(3-pyridinylamino)carbonyl]amino}ethyl)benzamide], the melting point was in the range of 182 to 184 °C. In series [1], the EC50 worked out at 0.46 µM and the Emax amounted to 101%.

Consider `O=C(Nc1cccnc1)NC(NC(=O)c1ccc(Cl)cc1)C(Cl)(Cl)Cl` (stereo not drawn) [Example 41, 4-chloro-N-(2,2,2-trichloro-1-{[(3-pyridinylamino)carbonyl]amino}ethyl)benzamide], for which the melting point lay within 166 to 168 °C. In series [1], this compound showed an EC50 of 0.14 µM and an Emax of 98%.

Compound `Cc1ccc(C(=O)NC(NC(=O)Nc2ccccc2)C(Cl)(Cl)Cl)cc1` (stereo not drawn) [Example 42, N-{1-[(anilinocarbonyl)amino]-2,2,2-trichloroethyl}-4-methylbenzamide] showed a melting point of 230 to 233 °C. In series [1], the EC50 came to 2.14 µM and the Emax was 66%.

With `Cc1ccc(C(=O)NC(NC(=O)Nc2ccccc2F)C(Cl)(Cl)Cl)cc1` (stereo not drawn) [Example 43, 4-methyl-N-(2,2,2-trichloro-1-{[(2-fluoroanilino)carbonyl]amino}ethyl)benzamide], the melting point fell in the range of 257 to 259 °C. In series [1], this compound gave an EC50 of 1.21 µM and an Emax of 80%.

Turning to `Cc1ccc(C(=O)NC(NC(=NC#N)Nc2cncnc2)C(Cl)(Cl)Cl)cc1` (stereo not drawn) [Example 48, 4-methyl-N-(2,2,2-trichloro-1-{[(cyanoimino)(5-pyrimidinylamino)methyl]amino}ethyl)benzamide], the melting point was 186 to 188 °C. In series [1], this compound registered an EC50 of 0.2 µM and an Emax of 96%.

`CCC(CC)C(NC(=O)c1ccc(Cl)cc1)NC(=NC#N)Nc1cccnc1` (stereo not drawn) [Example 59, 4-chloro-N-(1-{[(cyanoimino)(3-pyridinylamino)methyl]amino}-2-ethylbutyl)benzamide] had a melting point of 185 to 187 °C. In series [1], this compound had an EC50 of 0.31 µM and an Emax of 73%.

For the compound `CC(C)CC(NC(=O)c1ccc(Cl)cc1)NC(=NC#N)Nc1cccnc1` (stereo not drawn) [Example 60, 4-chloro-N-(1-{[(cyanoimino)(3-pyridinylamino)methyl]amino}-3-methylbutyl)benzamide], the melting point fell in the range of 193 to 194 °C. Also, in series [1], the EC50 is 1 µM and the Emax is 62%.

In turn, `N#CN=C(Nc1cccnc1)NC(NC(=O)c1ccc(Cl)cc1)C1CCCCC1` (stereo not drawn) [Example 61, 4-chloro-N-[{[(cyanoimino)(3-pyridinylamino)methyl]amino}(cyclohexyl)methyl]benzamide] gave a melting point of 190 to 192 °C. In series [1], this compound gave an EC50 of 0.33 µM and an Emax of 36%.

As to `CC(C)(C)CC(NC(=O)c1ccc(Cl)cc1)NC(=NC#N)Nc1cccnc1` (stereo not drawn) [Example 62, 4-chloro-N-(1-{[(cyanoimino)(3-pyridinylamino)methyl]amino}-3,3-dimethylbutyl)benzamide], the melting point is 181 to 183 °C. In series [1], this compound had an EC50 of 0.33 µM and an Emax of 81%.

In turn, `CC(C)C(NC(=O)c1ccc(Cl)cc1)NC(=NC#N)Nc1cccnc1` (stereo not drawn) [Example 63, 4-chloro-N-(1-{[(cyanoimino)(3-pyridinylamino)methyl]amino}-2-methylpropyl)benzamide] displayed a melting point of 182 to 184 °C. Also, in series [1], the EC50 stood at 4.4 µM and the Emax stood at 73%.

The compound `N#CN=C(Nc1cccnc1)NC(NC(=O)c1ccc(Cl)cc1)C(F)(F)F` (stereo not drawn) [Example 64, 4-chloro-N-(1-{[(cyanoimino)(3-pyridinylamino)methyl]amino}-2,2,2-trifluoroethyl)benzamide] yielded a melting point of 136 to 138 °C. In series [1], this compound had an EC50 of 0.4 µM and an Emax of 89%.

As to `CCC(CC)C(NC(=O)c1ccc(Cl)cc1)NC(=C[N+](=O)[O-])Nc1cccnc1` (stereo not drawn) [Example 68, 4-chloro-N-(2-ethyl-1-{[2-nitro-1-(3-pyridinylamino)ethenyl]amino}butyl)benzamide], the melting point lay within 192 to 193 °C. For the same compound, in series [1], a half-maximal effect (EC50) was put at 0.43 µM and the Emax came out at 99%.

Consider `CC(C)(C)C(NC(=O)c1ccc(Cl)cc1)NC(=NC#N)Nc1cccc(F)c1` (stereo not drawn) [Example 70, 4-chloro-N-(1-{[(cyanoimino)(3-fluoroanilino)methyl]amino}-2,2-dimethylpropyl)benzamide], for which the melting point fell in the range of 167 to 170 °C. In series [1], this compound displayed an EC50 of 0.32 µM and an Emax of 74%.

With `CCC(NC(=O)c1ccc(Cl)cc1)NC(=NC#N)Nc1cccnc1` (stereo not drawn) [Example 84, 4-chloro-N-(1-{[(cyanoimino)(3-pyridinylamino)methyl]amino}propyl)benzamide], the melting point lay in the range of 181 to 183 °C. In series [1], the EC50 worked out at 6 µM and the Emax worked out at 69%.

In turn, `N#CN=C(NCNC(=O)c1ccc(Cl)cc1)Nc1cccnc1` [Example 85, 4-chloro-N-({[(cyanoimino)(3-pyridinylamino)methyl]amino}methyl)benzamide] returned a melting point of 196 to 197 °C. Besides, in series [1], the EC50 is more than 10 µM and the Emax was less than 20%.

`CC(C)(C1CCCCC1)C(NC(=O)c1ccc(Cl)cc1)NC(=NC#N)Nc1cccnc1` (stereo not drawn) [Example 93, 4-chloro-N-(1-{[(cyanoimino)(3-pyridinylamino)methyl]amino}-2-cyclohexyl-2-methylpropyl)benzamide] had a melting point of 181 to 183 °C. In series [1], this compound showed an EC50 of 0.14 µM and an Emax of 75%.

For the compound `N#CN=C(Nc1cccnc1)NC(CC12CC3CC(CC(C3)C1)C2)NC(=O)c1ccc(Cl)cc1` (stereo not drawn) [Example 95, N-(2-(1-adamantyl)-1-{[(cyanoimino)(3-pyridinylamino)methyl]amino}ethyl)-4-chlorobenzamide], the melting point lay in the range of 202 to 203 °C. In series [1], this compound had an EC50 of 0.84 µM and an Emax of 97%.

As for `CN(C)CC(C)(C)C(NC(=O)c1ccc(Cl)cc1)NC(=NC#N)Nc1cccnc1` (stereo not drawn) [Example 97, 4-chloro-N-[1-{[(cyanoimino)(3-pyridinylamino)methyl]amino}-3-(dimethylamino)-2,2-dimethylpropyl]benzamide], the melting point lay in the range of 101 to 103 °C. In series [1], this compound yielded an EC50 of 1.6 µM and an Emax of 74%.

The compound `CSCCC(NC(=O)c1ccc(Cl)cc1)NC(=NC#N)Nc1cccnc1` (stereo not drawn) [Example 99, 4-chloro-N-[1-{[(cyanoimino)(3-pyridinylamino)methyl]amino}-3-(methylsulfanyl)propyl]benzamide] registered a melting point of 104 to 105 °C. In series [1], this compound registered an EC50 of 3.5 µM and an Emax of 84%.

These data come from patent US20020028836A1, “Potassium channel openers” (priority 2000, published 2002).
